From patent US5688789A, “PCP receptor ligands and the use thereof” (State of Oregon, acting by and through the Oregon State …, priority 1995, dated 1997)

Tests used:
[1] = system: NMDA receptor-ion channel complex; test: Whole-cell patch clamp: block of NMDA-induced currents on cultured rat hippocampal neurons (Example 6); format: cell-based; details: for inward current on serial applications with NMDA: 10 uM compound with NMDA; for recovery from inhibition of NMDA current: after 10 uM compound
Description: In the electrophysiological studies the compounds are evaluated with respect to their ability to block the ion channel of the NMDA receptor channel complex and thereby inhibit Ca^2+ and Na^+ ion flow into the nerve cell. Initially, the ion channels are opened by activating the NMDA receptor. Ion flow is determined by measuring the passage of electrical current, i.e., a use-dependent decrease in electrical current indicates blocking of the ion channel due to binding of a ligand at a site within the channel.
Hippocampal neurons were obtained from the CA1 region of the hippocampus from 1-3 day-old-newborn rats (Long-Evans). Small blocks of tissue ([…]1mm^3) were incubated in papain (20 units ml^-1; Worthington-Cooper) for 30 minutes. The tissue was dissociated into a single cell suspension by trituration with a fire-polished Pasteur pipette in complete growth medium (Earle's MEM, 20 mM glucose, 50 units/ml penicillin/streptomycin, 5% heat-inactivated fetal calf serum, Serum Extender from Collaborative Research) containing 2.5 mg/ml bovine serum albumin and 2.5 mg/ml trypsin inhibitor (Sigma). The cells were plated onto glass coverslips coated with collagen/poly-D-lysine. Cultures were fed every 3 days by replacing haft the volume of medium. Arabinosylcytosine (5×10^-6 M) was added to the cultures for 1 or 2 days during the first week after plating to suppress the proliferation of non-neuronal cells.
All electrophysiology experiments were performed with the whole-cell mode of patch clamp recording [Hamill, O. D., Marty, A., Neher, E., Sakman, B., and Sigworth, F. J., Pflugers Arch. 391:85-100 (1981)] from neurons grown for 1-3 weeks in culture. Agonists and agonist/antagonist combinations were applied by a U-tube mol (Fenwick et al, J. Physiol. 331:577-597 (1982)) to neurons in whole-cell experiments. The external solution contained (in mM) NaCl 140, KCl 3.5, CaCl2 1, glucose 5, picrotoxinin 0.02, tetrodotoxin (TTX) 5×10^-4, and N-2-hydroxyethyl-piperazine-N'-2-ethanesulfonic acid (HEPES) 10. The pH of this solution was adjusted to 7.4 with NaOH. The internal (patch electrode) solution contained (mM) Cs-methanesulfonate 120, CsCl 10, ethyleneglycol-bis-(β-aminoethylether)-N,N,N',N'-tetraacetic acid (EGTA) 10, HEPES 10 (pH adjusted to 7.0 with CsOH). Membrane current was filtered at 4000 Hz (-3dB; 8-pole Bessel) and recorded on magnetic tape for later analysis. Experiments were performed at room temperature (20°-25° C.). [Sources of chemicals: N-methyl-D-aspartate, Cambridge Research Biochemicals; pirotoxinin, Sigma Chemical Company; salts for recording solutions, Aldrich (Gold Label) or Alfa (Puratronic). [^3 H]Kainate and [3H]CPP and [^3 H]AMPA were purchased from Dupont/NEN (Boston, Mass.)].
Repetitive applications (every 30 s) to the same cell produced currents which varied less than 5% over a period of at least 30 minutes.

PCP receptor [2] = test: PCP receptor affinity of IDDC analogs vs. [3H]MK-801 in rat brain membrane (Example 10, Table 2); details: read-out: PCP Receptor Affinity IC50 in Rat Brain Membrane vs. [3H]MK-801, MEAN
PCP receptor [3] = test: PCP receptor binding against 3H-MK-801 (Example 5, Table 1); details: for IC50: vs. 3H-MK-801, ± sem (n)
Description: The PCP receptor binding properties of various compounds of the invention against ^3 H-5-methyl-10,11-dihydro-5H-dibenzo[a,d]cycloheptene-5,10-imine (^3 H-MK-801) were determined.

rat hippocampal cells = test: In vitro neurotoxicity assay: protection against glutamate, Trypan Blue survival count (Example 7); format: cell-based; details: 10 uM, glutamate 0-1000 uM, 1 uM glycine
Description: In the cytotoxicity studies, cultured mammalian neurons expressing EAA receptors are exposed in vitro to glutamate and the particular compound under investigation. The survival percentage of cells indicates the ability of the compound to protect against glutamate-induced neuronal death.
Dissociated rat hippocampal cultures were prepared using a modification of the method of Huettner and Baughman [Huettner, J. E. and Baugham, R. W., J. Neurosci. 6:3044-3060 (1986)]. The cortices were removed from 1-3 day post-natal rats (Sprague-Dawley) that had been anesthetized with chloral hydrate, and the hippocampi were dissected out and placed in Cl^- free dissociation medium supplemented with 1 mM kynurenic acid and 10 mM MgSO4 (Choi, D. W., J. Neurosci. 7:369-379 (1987)). The hippocampi were washed in the dissociation medium, then incubated for 2×20 minutes at 37° C. in dissociation medium containing 10 units/ml of Papain (Worthington). After the enzyme treatment, the tissue was incubated for three 5-minute periods at 37° C. with 10 mg/ml trypsin inhibitor (Sigma type II-0).
The cells were dissociated by trituration in growth medium and plated as 0.15 ml droplets of cell suspension onto the center of 35 mm Primaria (Falcon) dishes that had been stamped with a labeled 26×26 grid of approximately 0.64 cm^2 total area using a Mecanex BB form (WPI, New Haven, Conn.) and coated with poly-D-lysine and laminin (Collaborative Research). The cell density was between 2.5 and 4.0×10^5 cells per dish. The growth medium was Eagles minimum essential media (MEM, Earle's salts) supplemented with 5% fetal bovine serum (CCL), 5% defined supplemented calf serum (HyClone), 50 mM glucose, 50 units/ml penicillin/streptomycin and MITO+serum extender (Collaborative Research). The cells were maintained at 37° C. in a humidified 4.5% CO2 atmosphere. […]
Before treatment, sister cultures were examined under phase-contrast microscopy to ensure that the cultures were of a similar density. […] The cultures were washed three times and the surviving cells counted in the grid area using phase contrast microscopy. […]

`CC12NC(Cc3ccccc31)c1ccccc12` (single isomer, unassigned) [MK-801, 5-methyl-10,11-dihydro-5H-dibenzo[a,d]cycloheptene-5,10-imine, reference compound] was tested, and the “inward current on serial applications with NMDA” value [1] was “the inward current became progressively smaller with serial applications” and the “recovery from inhibition of NMDA current” value [1] was “required repeated applications of NMDA alone and was speeded by holding the membrane potential at positive voltages”.
Work on `COc1ccc2c(c1)C1CNC2Cc2ccccc21` (racemic) [(±)-7-OMe-IDDC, 7-Methoxy-5-(iminomethano)-10,11-dihydro-5H-dibenzo-[a,d]cycloheptene] yielded an IC50 (PCP receptor [2]) of 332 nM.
`Nc1ccc2c(c1)C1CNC(C2)c2ccccc21` (racemic) [(±)-3-NH2-IDDC, 3-amino-5-(iminomethano)-10,11-dihydro-5H-dibenzo[a,d]cycloheptene] was tested, and the IC50 (PCP receptor [2]) was 486 nM.
For `Ic1ccc2c(c1)C1CNC(C2)c2ccccc21` (racemic) [(±)-3-Iodo-IDDC, 3-iodo-5-(iminomethano)-10,11-dihydro-5H-dibenzo-[a,d]cycloheptene], the IC50 (PCP receptor [2]) was 160 nM.
In the case of `Brc1ccc2c(c1)C1CNC(C2)c2ccccc21` (racemic) [(±)-3-Br-IDDC, 3-bromo-5-(iminomethano)-10,11-dihydro-5H-dibenzo-[a,d]cycloheptene], the IC50 (PCP receptor [2]) is reported as 41 nM.
`CC12CNC(Cc3ccccc31)c1ccccc12` (racemic) [(±)-5-Me-IDDC, 5-methyl-10,5-(iminomethano)-10,11-dihydro-5H-dibenzo[a,d]cycloheptene] showed an IC50 (PCP receptor [3]) of 125 nM and an IC50 (PCP receptor [2]) of 119 nM.
In the case of `COc1ccc2c(c1)C1CN(C)C2Cc2ccc(Br)cc21` (racemic) [(±)-3-Br-7-OMe--N--Me-IDDC, 3-Bromo-7-methoxy-N-methyl-5-(iminomethano)-10,11-dihydro-5H-dibenzo[a,d]cycloheptene], the IC50 (PCP receptor [2]) is reported as 643 nM.
`Clc1ccc2c(c1)C1CNC(C2)c2ccccc21` (single isomer, unassigned; (-)) [(-)-3-Chloro-IDDC, (-)-3-Chloro-5-(iminomethano)-10,11-dihydro-5H-dibenzo-[a,d]cycloheptene] was tested, and the IC50 (PCP receptor [2]) was 110 nM.
`COc1ccc2c(c1)C1CNC(C2)c2ccccc21` (racemic) [(±)-3-OMe-IDDC, 3-methoxy-5-(iminomethano)-10,11-dihydro-5H-dibenzo-[a,d]cycloheptane] was tested, and the IC50 (PCP receptor [2]) was 168 nM.
`CN1CC2c3ccccc3CC1c1ccccc12` (single isomer, unassigned) [N-methyl IDDC, N-methyl-10,5-(iminomethano)-10,11-dihydro-5H-dibenzo[a,d]cycloheptene] was tested, and the “cell survival compared to control” value (rat hippocampal cells) was “enhanced cell survival when compared to control values”.
`Clc1ccc2c(c1)C1CNC2Cc2ccccc21` (racemic) [(±)-7-Cl-IDDC, 7-Chloro-5-(iminomethano)-10,11-dihydro-5H-dibenzo-[a,d]cycloheptene] was tested, and the IC50 (PCP receptor [2]) was 690 nM.
In the case of `COc1ccc2c(c1)C1CNC2Cc2ccc(Br)cc21` (racemic) [(±)-3-Br-7-OMe-IDDC, 3-bromo-7-methoxy-5-(iminomethano)-10,11-dihydro-5H-dibenzo[a,d]cycloheptene], the IC50 (PCP receptor [2]) is reported as 114 nM.
`Clc1ccc2c(c1)C1CNC(C2)c2ccccc21` (single isomer, unassigned; (+)) [(+)-3-Chloro-IDDC, (+) 3-Chloro-5-(iminomethano)-10,11-dihydro-5H-dibenzo-[a,d]cycloheptene] was tested, and the IC50 (PCP receptor [2]) was 14 nM.
For `COc1ccc2c(c1)C1CNC2Cc2ccc(Cl)cc21` (racemic) [(±)-3-Cl-7-OMe-IDDC, 3-chloro-7-methoxy-5-(iminomethano)-10,11-dihydro-5H-dibenzo[a,d]cycloheptene], the IC50 (PCP receptor [2]) was 113 nM.
In the case of `CN[C@H](CC(=O)O)C(=O)O` [NMDA, N-methyl-D-aspartate, reference compound], the inward whole-cell current ([1]; 50 uM NMDA + 1 uM glycine, three second applications, -60 mV) is reported as 100-1000 pA.
Work on `Fc1ccc2c(c1)C1CNC(C2)c2ccccc21` (racemic) [(±)-3-F-IDDC] yielded an IC50 (PCP receptor [2]) of 29.4 nM.
Work on `Clc1ccc2c(c1)C1CNC(C2)c2ccccc21` (racemic) [(±)-3-Cl-IDDC] yielded an IC50 (PCP receptor [2]) of 64.2 nM.
With `CN1C[C@H]2c3ccccc3C[C@@H]1c1ccccc12` [(+)-N--Me-IDDC, N-methyl-10,5-(iminomethano)-10,11-dihydro-5H-dibenzo[a,d]cycloheptene] the “affinity for the PCP receptor compared with MK-801” value (PCP receptor [3]; relative to MK-801) was “lower affinity than MK-801 for the PCP receptor”, the IC50 (PCP receptor [3]) was 800 ± 9 nM and the “inward current on serial applications with NMDA” value [1] was “Serial applications evoked progressively smaller currents”. For the same compound, the “rate of recovery from blockade compared with MK-801” value ([1]; 10 uM, relative to MK-801) was “somewhat more rapid than the rate of recovery of responses following MK-801”, the “inhibition of NMDA current” value ([1]; 10 uM, 50 uM NMDA + 1 uM glycine, -60 mV) was “inhibited the NMDA current in a use-dependent and voltage-dependent manner” and the “recovery from inhibition of NMDA current” value [1] was “reversed only with prolonged or repeated application of NMDA”. It also gave an IC50 (PCP receptor [2]) of 65.4 nM.
In the case of `CN1CC2c3cc(Br)ccc3CC1c1ccccc12` (racemic) [(±)-3-Br--N--Me-IDDC, 3-bromo-N-methyl-5-(iminomethano)-10,11-dihydro-5H-dibenzo[a,d]cycloheptene], the IC50 (PCP receptor [2]) is reported as 1040 nM.
With `Fc1ccc2c(c1)C1CNC(C2)c2ccccc21` (single isomer, unassigned; (+)) [(+)-3-Fluoro-IDDC, (+)-3-fluoro-5-(iminomethano)-10,11-dihydro-5H-dibenzo-[a,d]cycloheptene] the IC50 (PCP receptor [2]) was 18 nM.
